Laboratory results reported in patent publication US11345695B2, “Substituted nicotinimide inhibitors of BTK and their preparation and use in the treatment of cancer, inflammation and autoimmune disease” (GUANGZHOU INNOCARE PHARMA TECH CO., LTD., priority 2013, dated 2022).

Target: BTK (Homo sapiens (Human), UniProt Q06187)
Test: kinase-tagged phage / affinity bead competition binding screen (qPCR readout)
Conditions: BTK versus SRC

BTK, sequence (Q06187 whole entry): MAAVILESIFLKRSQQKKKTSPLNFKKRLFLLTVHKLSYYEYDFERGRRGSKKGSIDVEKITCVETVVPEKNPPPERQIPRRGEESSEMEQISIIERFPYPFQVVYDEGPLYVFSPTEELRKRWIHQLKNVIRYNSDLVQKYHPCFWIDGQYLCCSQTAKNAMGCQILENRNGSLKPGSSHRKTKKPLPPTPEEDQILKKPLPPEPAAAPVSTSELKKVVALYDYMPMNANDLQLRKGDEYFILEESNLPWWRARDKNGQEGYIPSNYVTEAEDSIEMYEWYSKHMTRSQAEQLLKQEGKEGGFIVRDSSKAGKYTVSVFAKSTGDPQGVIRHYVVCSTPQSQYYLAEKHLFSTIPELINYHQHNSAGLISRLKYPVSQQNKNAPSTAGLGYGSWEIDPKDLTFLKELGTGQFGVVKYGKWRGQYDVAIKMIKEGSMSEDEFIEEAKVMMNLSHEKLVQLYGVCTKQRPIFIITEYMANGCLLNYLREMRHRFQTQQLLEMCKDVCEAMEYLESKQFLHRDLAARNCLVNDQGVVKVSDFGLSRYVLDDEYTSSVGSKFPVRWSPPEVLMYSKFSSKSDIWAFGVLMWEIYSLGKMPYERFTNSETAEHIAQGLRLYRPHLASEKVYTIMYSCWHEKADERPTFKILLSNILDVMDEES

Fold Difference: >100x
SMILES: C=CC(=O)N1CCN(c2ccc(C(N)=O)c(-c3ccc(Oc4ccccc4)cc3)n2)CC1 [Example 5, 6-(4-acryloylpiperazin-1-yl)-2-(4-phenoxyphenyl)nicotinamide]
